# Measurements reported in US10441630B2, “Topical formulations and uses thereof” (OCULAR TECHNOLOGIES SARL, priority 2012, dated 2019).
# What was measured:
# Format in all cases: physicochemical
# [1] = Physical appearance, melt method, HCO-40 and compound 1001, at 25° C. and 4° C.; settings: 1001 4 wt %; for Allow to reach room temperature (25° C.): brought back from 4° C.; for Mixture physical appearance at room temperature (4° C.): placed at 4° C.; for Resuspend in water: water at 40° C.
# Description: The preparation of MNF encapsulating compound 1001 (neat oil) can be divided into two steps. As an example for the development of 3.0 wt % HCO-40 or HCO-60 MNF encapsulating 0.4% compound 1001 is described below. […] To this melt polymer compound 1001 (˜20 mg), thermostated at 40° C., was added and mixed for homogenous distribution. […] (in refrigerator).
# This aqueous solution was allowed to reach room temperature, under natural conditions. The pH of the solution was adjusted to 5.5 and the volume was made up with 2× phosphate buffer saline (pH 5.5) containing octoxynol-40 (0.01 wt %) and PVP-K-90 (1.2 wt %). The formulation was filtered through 0.2 μm nylon filter to remove any foreign material and obtain a clear homogenous aqueous RX-1001 formulation.
# The results obtained for physical appearance of the mixture, different phases, at different temperatures and appearance of final formulation are summarized in Tables 3a-3c.
# [2] = Weight percent of drug loaded into MNF (entrapment, RP-HPLC); settings: HCO-60 4 wt %, Octoxynol-40 0.01 wt %
# Description: To determine the entrapment efficiency of the formulation, all the prepared formulations were subjected to entrapment efficiency test. Briefly, formulations were vortex mixed for homogeneity and 1 mL was transferred to a fresh (1.5 mL) eppendorf tube. Each formulation was lyophilized to obtain a solid at the bottom of eppendorf tube. The obtained solid was suspended in 1 mL of organic solvent (diethyl ether) to generate reverse micelles and release the drug into the external organic solvent. The organic solvent was evaporated overnight in speed vacuum. The resultant reversed micelles were resuspended in 1 mL of 2-propanol (dilution factor was taken into account) and further diluted to determine the concentration of compound 1001 entrapped in each micellar preparation with HPLC. The entrapment efficiency of the formulation was calculated with the following formula (wherein MNF=Mixed Nanomicellar Formulation): […]
# In vitro analysis of compound 1001 was performed by a reversed phase high performance liquid chromatography (RP-HPLC) method with a Shimadzu HPLC pump (Shimadzu, Shimadzu Scientific instruments, Columbia, Md.), Alcott autosampler (model 718 AL), Shimadzu UV/Visible detector (Shimadzu, SPD-20A/20AV, USA), ODS column (5 μm, 150×4.6 mm) thermostated at 40°±1 C and Hewlett Packard HPLC integrator (Hewlett Packard, Palo Alto, Calif.). The mobile phase was comprised of methanol (MeOH), water and trifluoroacetic acid (TFA) (70:30:0.05% v/v) which was set at a flow rate of 0.5 mL/min. Detection wavelength was set at 272 nm. The sample tray temperature was maintained at 4° C. Calibration curve (0.5 to 5 μg/mL) for compound 1001 was prepared by making appropriate dilutions from the stock solution in 2-propanol. An injection volume of 10 μl was injected into the HPLC column for analysis. All the standards and samples prepared were stored at 4° C. before and during the analysis.
# (§1) Mixed nanomicellar formulation encapsulating compound 1001 was prepared by solvent evaporation method in two steps: 1) Preparation of basic formulation and 2) rehydration. In step one, compound 1001, HCO-60 and octoxynol-40 were dissolved separately in 0.3 mL of ethyl acetate. These three solutions were mixed together in 15-mL centrifuge tube. The resultant mixture was vortexed to obtain a homogenous solution. Ethyl acetate solvent was removed with speed vacuum to obtain a solid thin film. The residue was kept overnight under high vacuum at room temperature to remove residual organic solvent. In step two, the resultant thin film was hydrated with 1 mL of double distilled deionized water by vortexing the solution. The rehydrated formulation was suspended in 2× phosphate buffer solution, (pH 6.5). It was filtered through 0.2 μm nylon filter membrane to remove the unentrapped drug aggregates and other foreign particulates. The entrapment of compound 1001 was determined by RP-HPLC following disruption of the micelles and solubilization of 1001 in the diluent (2-propanol) as described below
# (§2) Weight percent of drug loaded into MNF was determined following the method for entrapment efficiency. Size and polydispersity index of the formulations was determined with Malvern zetasizer as described above. The formulations appear clear and have small size and narrow size distribution.
# [3] = Appearance of compound 1001 MNF, solvent evaporation method; settings: HCO-60 4 wt %, Octoxynol-40 0.01 wt %
# Description: as §1, §2
# [4] = 1001 initially added 0.035 wt %
# [5] = 1001 initially added 0.070 wt %
# [6] = 1001 initially added 0.095 wt %
# [7] = 1001 initially added 0.120 wt %
# [8] = 1001 initially added 0.250 wt %
# [9] = 1001 initially added 0.300 wt %
# [10] = 1001 initially added 0.400 wt %
smiles,measurement,setting,value
C#CC[C@@H](O)/C=C/C=C/C#C[C@@H](O)CCCC(=O)OC(C)C [compound 1001],Final formulation,[1]; HCO-40 0.5 wt %,Emulsion
same,Mixture physical appearance at room temperature (25° C.),[1]; HCO-40 0.5 wt %,Viscous yellow
same,Allow to reach room temperature (25° C.),[1]; HCO-40 0.5 wt %,Viscous liquid
same,Mixture physical appearance at room temperature (4° C.),[1]; HCO-40 0.5 wt %,Viscous liquid
same,Resuspend in water,[1]; HCO-40 0.5 wt %,Emulsion
same,Final formulation,[1]; HCO-40 0.75 wt %,Emulsion
same,Mixture physical appearance at room temperature (25° C.),[1]; HCO-40 0.75 wt %,Viscous yellow
same,Allow to reach room temperature (25° C.),[1]; HCO-40 0.75 wt %,Viscous liquid
same,Mixture physical appearance at room temperature (4° C.),[1]; HCO-40 0.75 wt %,Viscous liquid
same,Resuspend in water,[1]; HCO-40 0.75 wt %,Emulsion
same,Final formulation,[1]; HCO-40 1.0 wt %,Emulsion
same,Mixture physical appearance at room temperature (25° C.),[1]; HCO-40 1.0 wt %,Viscous yellow
same,Allow to reach room temperature (25° C.),[1]; HCO-40 1.0 wt %,Viscous liquid
same,Mixture physical appearance at room temperature (4° C.),[1]; HCO-40 1.0 wt %,Viscous liquid
same,Resuspend in water,[1]; HCO-40 1.0 wt %,Emulsion
same,Final formulation,[1]; HCO-40 1.25 wt %,Emulsion
same,Mixture physical appearance at room temperature (25° C.),[1]; HCO-40 1.25 wt %,Viscous yellow
same,Allow to reach room temperature (25° C.),[1]; HCO-40 1.25 wt %,Viscous liquid
same,Mixture physical appearance at room temperature (4° C.),[1]; HCO-40 1.25 wt %,Viscous liquid
same,Resuspend in water,[1]; HCO-40 1.25 wt %,Emulsion
same,Final formulation,[1]; HCO-40 1.5 wt %,Emulsion
same,Mixture physical appearance at room temperature (25° C.),[1]; HCO-40 1.5 wt %,Viscous yellow
same,Allow to reach room temperature (25° C.),[1]; HCO-40 1.5 wt %,Viscous liquid
same,Mixture physical appearance at room temperature (4° C.),[1]; HCO-40 1.5 wt %,Yellow waxy
same,Resuspend in water,[1]; HCO-40 1.5 wt %,Emulsion
same,Final formulation,[1]; HCO-40 1.75 wt %,Emulsion
same,Mixture physical appearance at room temperature (25° C.),[1]; HCO-40 1.75 wt %,Viscous yellow
same,Allow to reach room temperature (25° C.),[1]; HCO-40 1.75 wt %,Viscous liquid
same,Mixture physical appearance at room temperature (4° C.),[1]; HCO-40 1.75 wt %,Yellow waxy
same,Resuspend in water,[1]; HCO-40 1.75 wt %,Emulsion
same,Final formulation,[1]; HCO-40 2.0 wt %,Emulsion
same,Mixture physical appearance at room temperature (25° C.),[1]; HCO-40 2.0 wt %,Viscous yellow
same,Allow to reach room temperature (25° C.),[1]; HCO-40 2.0 wt %,Viscous liquid
same,Mixture physical appearance at room temperature (4° C.),[1]; HCO-40 2.0 wt %,Yellow waxy
same,Resuspend in water,[1]; HCO-40 2.0 wt %,Emulsion
same,Final formulation,[1]; HCO-40 2.25 wt %,Emulsion
same,Mixture physical appearance at room temperature (25° C.),[1]; HCO-40 2.25 wt %,Viscous yellow
same,Allow to reach room temperature (25° C.),[1]; HCO-40 2.25 wt %,Viscous liquid
same,Mixture physical appearance at room temperature (4° C.),[1]; HCO-40 2.25 wt %,Yellow waxy
same,Resuspend in water,[1]; HCO-40 2.25 wt %,Emulsion
same,Final formulation,[1]; HCO-40 2.5 wt %,Yellow color
same,Mixture physical appearance at room temperature (25° C.),[1]; HCO-40 2.5 wt %,Viscous yellow
same,Allow to reach room temperature (25° C.),[1]; HCO-40 2.5 wt %,Viscous liquid
same,Mixture physical appearance at room temperature (4° C.),[1]; HCO-40 2.5 wt %,Yellow waxy
same,Resuspend in water,[1]; HCO-40 2.5 wt %,Yellow
same,Final formulation,[1]; HCO-40 2.75 wt %,Very pale yellow
same,Mixture physical appearance at room temperature (25° C.),[1]; HCO-40 2.75 wt %,Viscous yellow
same,Allow to reach room temperature (25° C.),[1]; HCO-40 2.75 wt %,Viscous liquid
same,Mixture physical appearance at room temperature (4° C.),[1]; HCO-40 2.75 wt %,Pale yellow waxy
same,Resuspend in water,[1]; HCO-40 2.75 wt %,Pale yellow
same,Final formulation,[1]; HCO-40 3.0 wt %,Clear solution
same,Mixture physical appearance at room temperature (25° C.),[1]; HCO-40 3.0 wt %,Viscous yellow
same,Allow to reach room temperature (25° C.),[1]; HCO-40 3.0 wt %,Viscous liquid
same,Mixture physical appearance at room temperature (4° C.),[1]; HCO-40 3.0 wt %,Pale yellow solid
same,Resuspend in water,[1]; HCO-40 3.0 wt %,Clear
same,Final formulation,[1]; HCO-40 4.0 wt %,Clear solution
same,Mixture physical appearance at room temperature (25° C.),[1]; HCO-40 4.0 wt %,Viscous yellow
same,Allow to reach room temperature (25° C.),[1]; HCO-40 4.0 wt %,Pale yellow
same,Mixture physical appearance at room temperature (4° C.),[1]; HCO-40 4.0 wt %,Pale yellow waxy
same,Resuspend in water,[1]; HCO-40 4.0 wt %,Clear
same,1001 (loaded in mixed micelles) wt %,[2]; [4],0.033 wt %
same,1001 (loaded in mixed micelles) wt %,[2]; [5],0.065 wt %
same,1001 (loaded in mixed micelles) wt %,[2]; [6],0.084 wt %
same,1001 (loaded in mixed micelles) wt %,[2]; [7],0.11 wt %
same,1001 (loaded in mixed micelles) wt %,[2]; [8],0.26 wt %
same,1001 (loaded in mixed micelles) wt %,[2]; [9],0.32 wt %
same,1001 (loaded in mixed micelles) wt %,[2]; [10],0.45 wt %
same,Result,[3]; [4],Clear/transparent
same,Result,[3]; [5],Clear/transparent
same,Result,[3]; [6],Clear/transparent
same,Result,[3]; [7],Pale yellow color
same,Result,[3]; [8],Yellow color
same,Result,[3]; [9],Yellow color
same,Result,[3]; [10],Yellow color
